Results as given in ChEMBL document CHEMBL1136537, “The discovery of a new class of large-conductance Ca2+-activated K+ channel opener targeted for overactive bladder: synthesis and structure-activity relationships of 2-amino-4-azaindoles” (Bioorg Med Chem Lett, 2003).

Tests used:
Sus scrofa [1] = organism: Sus scrofa; assay: In vitro maximal efficacy in stable twitch response in isolated Landrace pig bladder detrusor strips relative to P-1075
[2] = molecular target: T1, Calcium-activated potassium channel subunit alpha-1 (Homo sapiens, UniProt Q12791); assay: [86Rb+] efflux induced by BKca alpha subunits expressed in HEK293 cells at 10 uM; assay type: cell-based
T1 sequence (Q12791 whole entry): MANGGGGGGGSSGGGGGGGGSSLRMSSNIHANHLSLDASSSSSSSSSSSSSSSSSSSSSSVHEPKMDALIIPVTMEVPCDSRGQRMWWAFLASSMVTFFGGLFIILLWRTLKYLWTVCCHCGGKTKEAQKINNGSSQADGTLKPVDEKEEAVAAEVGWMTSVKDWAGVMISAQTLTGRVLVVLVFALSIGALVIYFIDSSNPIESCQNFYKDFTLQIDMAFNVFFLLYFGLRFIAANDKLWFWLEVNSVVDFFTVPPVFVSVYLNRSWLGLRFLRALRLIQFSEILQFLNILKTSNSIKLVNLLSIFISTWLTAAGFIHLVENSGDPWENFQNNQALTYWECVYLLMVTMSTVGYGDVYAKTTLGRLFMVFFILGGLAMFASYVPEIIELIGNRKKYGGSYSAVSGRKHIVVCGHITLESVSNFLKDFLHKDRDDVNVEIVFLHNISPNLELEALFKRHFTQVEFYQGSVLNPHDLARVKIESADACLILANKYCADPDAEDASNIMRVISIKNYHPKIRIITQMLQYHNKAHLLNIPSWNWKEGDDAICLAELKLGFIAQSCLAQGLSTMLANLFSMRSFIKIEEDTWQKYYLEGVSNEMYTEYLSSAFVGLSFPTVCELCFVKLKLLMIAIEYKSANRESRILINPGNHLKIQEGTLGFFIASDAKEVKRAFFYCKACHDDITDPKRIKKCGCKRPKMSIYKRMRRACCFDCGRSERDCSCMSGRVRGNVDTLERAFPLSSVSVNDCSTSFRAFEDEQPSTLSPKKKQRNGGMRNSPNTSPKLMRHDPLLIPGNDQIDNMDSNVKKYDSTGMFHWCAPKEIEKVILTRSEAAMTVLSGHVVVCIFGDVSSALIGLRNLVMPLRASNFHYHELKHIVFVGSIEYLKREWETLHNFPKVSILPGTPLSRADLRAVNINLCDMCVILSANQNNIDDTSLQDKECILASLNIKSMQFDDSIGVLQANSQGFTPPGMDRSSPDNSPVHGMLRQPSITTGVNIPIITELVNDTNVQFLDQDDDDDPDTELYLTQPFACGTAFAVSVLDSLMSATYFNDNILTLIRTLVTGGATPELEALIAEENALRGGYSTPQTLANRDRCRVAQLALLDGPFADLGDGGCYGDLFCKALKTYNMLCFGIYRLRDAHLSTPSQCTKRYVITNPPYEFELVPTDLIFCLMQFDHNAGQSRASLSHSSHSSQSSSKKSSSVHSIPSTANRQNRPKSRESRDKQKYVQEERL

[3] = molecular target: T1, Calcium-activated potassium channel subunit alpha-1; assay: BKca channel opening activity in HEK293 cells stably transfected with BKca alpha subunits at 10 uM concentration using a [86Rb+] efflux assay; assay type: cell-based
Sus scrofa [4] = organism: Sus scrofa; assay: In vitro concentration to suppress electrically stimulated contraction in isolated Landrance pig bladder detrusor strips; assay type: functional
[5] = molecular target: T1, Calcium-activated potassium channel subunit alpha-1; assay: BKca opening activity as outward current at 10 uM in HEK293 cells; assay type: cell-based

| SMILES | Efficacy (Sus scrofa [1]) | EC50 [2] | Response [3] | EC50 (Sus scrofa [4]) | Activity [5] | Response [5] |
| --- | --- | --- | --- | --- | --- | --- |
| COC(=O)C1CCN(c2[nH]c3cccnc3c2C#N)CC1 |  | 17 µM | 55% |  |  |  |
| N#Cc1c(N2CCC3CCCCC3C2)[nH]c2cccnc12 (stereo unspecified) |  | Not Active | 0% |  |  |  |
| N#Cc1c(N2CCC(O)CC2)[nH]c2cccnc12 |  | 15.1 µM | 28% |  |  |  |
| N#Cc1c(N2CCCCCC2)[nH]c2cccnc12 | 63% | 3.34 µM | 61% | 25.9 µM | 105% |  |
| N#Cc1c(N2CCC[C@H](O)C2)[nH]c2cccnc12 | 31% | 5.07 µM | 65% | 9.26 µM | 108% |  |
| N#Cc1c(N2CCCCCCC2)[nH]c2cccnc12 |  | Not Active | 0% |  |  |  |
| CN1CCCN(c2[nH]c3cccnc3c2C#N)CC1 |  | Not Active | 0% |  |  |  |
| Cc1c(-c2ccccc2F)[nH]c(N)c1C#N | 93% |  |  | 63.1 µM |  | 21.7% |
| C[C@@H]1CC[C@@H](C)N1c1[nH]c2cccnc2c1C#N |  | Not Active | 0% |  |  |  |
| N#Cc1c(N2CC3CCC(CC3)C2)[nH]c2cccnc12 |  | 4.43 µM | 74% |  |  |  |
| CN1CCN(c2[nH]c3cccnc3c2C#N)CC1 |  | Not Active | 0% |  |  |  |

Other lines, results leading:

| Efficacy (Sus scrofa [1]) | EC50 [2] | Response [3] | EC50 (Sus scrofa [4]) | Activity [5] | Response [5] | SMILES |
| --- | --- | --- | --- | --- | --- | --- |
| 67% | Not Active | 3.02% | 24.8 µM |  |  | N#Cc1c(N2CCCCC2)[nH]c2cccnc12 |
|  | Not Active | 0% |  |  |  | N#Cc1c(NCc2ccccc2)[nH]c2cccnc12 |
|  | Not Active | 0% |  |  |  | N#Cc1c(N2CCC[C@@H]2CO)[nH]c2cccnc12 |
|  | 8.12 µM | 58% |  |  |  | N#Cc1c(N2CCCC2)[nH]c2cccnc12 |
|  | 6.94 µM | 57% |  |  |  | CCN(CC)c1[nH]c2cccnc2c1C#N |
|  | Not Active | 0% |  |  |  | CCCN(CCO)c1[nH]c2cccnc2c1C#N |
|  | Not Active | 0% |  |  |  | N#Cc1c(N2CC[C@@H](O)C2)[nH]c2cccnc12 |
|  | 3.86 µM | 62% |  |  |  | N#Cc1c(N2CCOCC2)[nH]c2cccnc12 |
|  | 6.75 µM | 63% |  |  |  | CN(C)CCN(C)c1[nH]c2cccnc2c1C#N |
|  | 5.86 µM | 62% |  |  |  | N#Cc1c(-n2ccnc2)[nH]c2cccnc12 |
|  | 13.4 µM | 65% |  |  |  | N#Cc1c(O)[nH]c2cccnc12 |
|  | Not Active | 0% |  |  |  | N#Cc1c(Cl)[nH]c2cccnc12 |
|  | Not Active | 0% |  |  |  | N#Cc1c(Nc2ccccc2)[nH]c2cccnc12 |
|  | Not Active | 0% |  |  |  | N#Cc1c(N2CCC[C@H]2CO)[nH]c2cccnc12 |
| 58% | 5.13 µM | 60% | 23.5 µM | 75.5% |  | CN(C)c1[nH]c2cccnc2c1C#N |
|  | Not Active | 0% |  |  |  | N#Cc1c(N2CC=CC2)[nH]c2cccnc12 |
